Reference: US20250195536A1, “BICYCLOOCTANE KRAS INHIBITORS” (Incyte Corporation, priority 2023, published 2025)

How the values were obtained:
KRAS G12D = KRAS G12D (Homo sapiens, UniProt P01116, G12D); test: GDP-GTP exchange assay (KRAS G12D); assay type: biochemical; settings: bodipy-GDP/GppNHp exchange with SOS1; 4 h pre-incubation, 2 h reaction
Method: (§1) The inhibitor potency of the exemplified compounds was determined in a fluorescence based guanine nucleotide exchange assay, which measures the exchange of bodipy-GDP (fluorescently labeled GDP) for GppNHp (Non-hydrolyzable GTP analog) to generate the active state of KRAS in the presence of SOS1 (guanine nucleotide exchange factor). Inhibitors were serially diluted in DMSO and a volume of 0.1 μL was transferred to the wells of a black low volume 384-well plate. 5 μL/well volume of bodipy-loaded KRAS G12D diluted to 2.5 nM in assay buffer (25 mM Hepes pH 7.5, 50 mM NaCl, 10 mM MgCl2 and 0.01% Brij-35) was added to the plate and pre-incubated with inhibitor for 4 h at r.t. Appropriate controls (enzyme with no inhibitor or with a G12D inhibitor) were included on the plate. The exchange was initiated by the addition of a 5 μL/well volume containing 1 mM GppNHp and 300 nM SOS1 in assay buffer. The 10 μL/well reaction concentration of the bodipy-loaded KRAS G12D, GppNHp, and SOS1 were 2.5 nM, 500 μM, and 150 nM, respectively. The reaction plates were incubated at r.t. for 2 h, a time estimated for complete GDP-GTP exchange in the absence of inhibitor. For the KRAS G12V mutant, similar guanine nucleotide exchange assays were used with 2.5 nM as final concentration for the bodipy loaded KRAS proteins and 3 h incubation after adding GppNHp-SOS1 mixture. A cyclic peptide described to selectively bind G12D mutant (Sakamoto et al., BBRC 484.3 (2017), 605-611) or internal compounds with confirmed binding were used as positive controls in the assay plates. Fluorescence intensities were measured on a PheraStar plate reader instrument (BMG Labtech) with excitation at 485 nm and emission at 520 nm.
(§2) Either GraphPad prism or Genedata Screener SmartFit was used to analyze the data. The IC50 values were derived by fitting the data to a four parameter logistic equation producing a sigmoidal dose-response curve with a variable Hill coefficient.
(§3) The symbol “⬆” indicates IC50 100 nM, “⬆⬆” indicates IC50 >100 nM but ≤1 μM; and “⬆⬆⬆” indicates IC50 is >1 μM but ≤5 μM, “⬆⬆⬆⬆” indicates IC50 is >5 μM but ≤10 μM. “NA” indicates IC50 not available.

KRAS G12V = KRAS G12V (Homo sapiens, UniProt P01116, G12V); test: GDP-GTP exchange assay (KRAS G12V); assay type: biochemical; settings: bodipy-GDP/GppNHp exchange with SOS1; 3 h incubation after GppNHp-SOS1
Method: as §1, §2, §3
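Also: one dagger IC50 up to 100 nM and two daggers above 100 nM up to 1 μM.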

KRAS G12V, sequence (P01116 1-188 isoform P01116-2 G12V): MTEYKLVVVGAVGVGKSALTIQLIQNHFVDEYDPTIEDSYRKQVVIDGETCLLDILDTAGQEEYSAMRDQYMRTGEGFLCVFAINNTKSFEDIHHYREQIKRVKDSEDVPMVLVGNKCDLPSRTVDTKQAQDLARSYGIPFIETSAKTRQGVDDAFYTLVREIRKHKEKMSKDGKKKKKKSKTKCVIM
KRAS G12D, sequence (P01116 1-188 isoform P01116-2 G12D): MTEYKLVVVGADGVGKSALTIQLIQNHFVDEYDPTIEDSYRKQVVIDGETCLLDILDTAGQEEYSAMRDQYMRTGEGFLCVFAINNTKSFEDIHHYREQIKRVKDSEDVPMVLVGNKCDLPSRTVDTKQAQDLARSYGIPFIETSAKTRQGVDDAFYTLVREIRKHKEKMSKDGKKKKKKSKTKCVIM

Row | SMILES | G12D_exchange (KRAS_G12D exchange assay IC50) (KRAS G12D) | G12V_exchange (KRAS_G12V exchange assay IC50) (KRAS G12V)
1 | Cc1nc2c(F)c(-c3cccc(Cl)c3Cl)c(CCC#N)cc2c2c1cc([C@H]1[C@H]3C[C@H](CN(c4cnc5cccnc5c4)C3)N1C(=O)C1CC1)n2[C@H]1[C@H]2CN[C@@H]1C2 (atropisomer, axis not shown; (Ra)) [Example 6, 3-((Ra)-1-((1R,4R,5S)-2-azabicyclo[2.1.1]hexan-5-yl)-2-((1S,5R,7R)-6-(cyclopropanecarbonyl)-3-(1,5-naphthyridin-3-yl)-3,6-diazabicyclo[3.2.1]octan-7-yl)-7-(2,3-dichlorophenyl)-6-fluoro-4-methyl-1H-pyrrolo[3,2-c]quinolin-8-yl)propanenitrile] | † | †
2 | Cc1nc2c(F)c(-c3cccc(Cl)c3Cl)c(CCC#N)cc2c2c1cc([C@H]1[C@H]3C[C@H](CN(c4ccccc4C(F)(F)F)C3)N1C(=O)C1CC1)n2[C@H]1[C@H]2CN[C@@H]1C2 (atropisomer, axis not shown; (Ra)) [Example 16, 3-((Ra)-1-((1R,4R,5S)-2-azabicyclo[2.1.1]hexan-5-yl)-2-((1S,5R,7R)-6-(cyclopropanecarbonyl)-3-(2-(trifluoromethyl)phenyl)-3,6-diazabicyclo[3.2.1]octan-7-yl)-7-(2,3-dichlorophenyl)-6-fluoro-4-methyl-1H-pyrrolo[3,2-c]quinolin-8-yl)propanenitrile] | ††† | †††
3 | Cc1nc2c(F)c(-c3cccc(Cl)c3Cl)c(CCC#N)cc2c2c1cc([C@H]1[C@H]3C[C@H](CN(c4cc(C(F)(F)F)cc(C(F)(F)F)c4)C3)N1C(=O)C1CC1)n2[C@H]1[C@H]2CN[C@@H]1C2 (atropisomer, axis not shown; (Ra)) [Example 18, 3-((Ra)-1-((1R,4R,5S)-2-azabicyclo[2.1.1]hexan-5-yl)-2-((1S,5R,7R)-3-(3,5-bis(trifluoromethyl)phenyl)-6-(cyclopropanecarbonyl)-3,6-diazabicyclo[3.2.1]octan-7-yl)-7-(2,3-dichlorophenyl)-6-fluoro-4-methyl-1H-pyrrolo[3,2-c]quinolin-8-yl)propanenitrile] | †† | †
4 | Cc1nc2c(F)c(-c3cccc(Cl)c3Cl)c(CCC#N)cc2c2c1cc([C@H]1[C@H]3C[C@H](CN(c4ccncc4)C3)N1C(=O)C1CC1)n2[C@H]1[C@H]2CN[C@@H]1C2 (atropisomer, axis not shown; (Ra)) [Example 37, 3-((Ra)-1-((1R,4R,5S)-2-azabicyclo[2.1.1]hexan-5-yl)-2-((1S,5R,7R)-6-(cyclopropanecarbonyl)-3-(pyridin-4-yl)-3,6-diazabicyclo[3.2.1]octan-7-yl)-7-(2,3-dichlorophenyl)-6-fluoro-4-methyl-1H-pyrrolo[3,2-c]quinolin-8-yl)propanenitrile] | † | †
5 | Cc1nc2c(F)c(-c3cccc(Cl)c3Cl)c(CCC#N)cc2c2c1cc([C@H]1[C@H]3C[C@H](CN(c4ccnc(C#N)c4)C3)N1C(=O)C1CC1)n2[C@H]1[C@H]2CN[C@@H]1C2 (atropisomer, axis not shown; (Ra)) [Example 63, 4-((1S,5R,7R)-7-((Ra)-1-((1R,4R,5S)-2-azabicyclo[2.1.1]hexan-5-yl)-8-(2-cyanoethyl)-7-(2,3-dichlorophenyl)-6-fluoro-4-methyl-1H-pyrrolo[3,2-c]quinolin-2-yl)-6-(cyclopropanecarbonyl)-3,6-diazabicyclo[3.2.1]octan-3-yl)picolinonitrile] | † | †
6 | Cc1nc2c(F)c(-c3cccc(Cl)c3Cl)c(CCC#N)cc2c2c1cc([C@H]1[C@H]3C[C@H](CN(c4cc(C(C)(F)F)ncn4)C3)N1C(=O)CO)n2[C@H]1[C@H]2CN[C@@H]1C2 (atropisomer, axis not shown; (Ra)) [Example 129, 3-((Ra)-1-((1R,4R,5S)-2-azabicyclo[2.1.1]hexan-5-yl)-7-(2,3-dichlorophenyl)-2-((1 S,5R,7R)-3-(6-(1,1-difluoroethyl)pyrimidin-4-yl)-6-(2-hydroxyacetyl)-3,6-diazabicyclo[3.2.1]octan-7-yl)-6-fluoro-4-methyl-1H-pyrrolo[3,2-c]quinolin-8-yl)propanenitrile] | – | †

Other lines, results leading:

Row | G12D_exchange (KRAS_G12D exchange assay IC50) (KRAS G12D) | G12V_exchange (KRAS_G12V exchange assay IC50) (KRAS G12V) | SMILES
7 | † | † | Cc1nc2c(F)c(-c3cccc(Cl)c3Cl)c(CCC#N)cc2c2c1cc([C@H]1[C@H]3C[C@H](CN(c4cnn(C)c4)C3)N1C(=O)C1CC1)n2[C@H]1[C@H]2CN[C@@H]1C2 (atropisomer, axis not shown; (Ra)) [Example 11, 3-((Ra)-1-((1R,4R,5S)-2-azabicyclo[2.1.1]hexan-5-yl)-2-((1S,5R,7R)-6-(cyclopropanecarbonyl)-3-(1-methyl-1H-pyrazol-4-yl)-3,6-diazabicyclo[3.2.1]octan-7-yl)-7-(2,3-dichlorophenyl)-6-fluoro-4-methyl-1H-pyrrolo[3,2-c]quinolin-8-yl)propanenitrile]
8 | †† | † | Cc1nc2c(F)c(-c3cccc(Cl)c3Cl)c(CCC#N)cc2c2c1cc([C@H]1[C@H]3C[C@H](CN(c4cccc(=O)n4C)C3)N1C(=O)C1CC1)n2[C@H]1[C@H]2CN[C@@H]1C2 (atropisomer, axis not shown; (Ra)) [Example 57, 3-((Ra)-1-((1R,4R,5S)-2-azabicyclo[2.1.1]hexan-5-yl)-2-((1S,5R,7R)-6-(cyclopropanecarbonyl)-3-(1-methyl-6-oxo-1,6-dihydropyridin-2-yl)-3,6-diazabicyclo[3.2.1]octan-7-yl)-7-(2,3-dichlorophenyl)-6-fluoro-4-methyl-1H-pyrrolo[3,2-c]quinolin-8-yl)propanenitrile]
9 | † | † | Cc1nc2c(F)c(-c3cccc(Cl)c3Cl)c(CCC#N)cc2c2c1cc([C@H]1[C@H]3C[C@H](CN(c4cc(C)n(C)c(=O)c4)C3)N1C(=O)C1CC1)n2[C@H]1[C@H]2CN[C@@H]1C2 (atropisomer, axis not shown; (Ra)) [Example 66, 3-((Ra)-1-((1R,4R,5S)-2-azabicyclo[2.1.1]hexan-5-yl)-2-((1S,5R,7R)-6-(cyclopropanecarbonyl)-3-(1,6-dimethyl-2-oxo-1,2-dihydropyridin-4-yl)-3,6-diazabicyclo[3.2.1]octan-7-yl)-7-(2,3-dichlorophenyl)-6-fluoro-4-methyl-1H-pyrrolo[3,2-c]quinolin-8-yl)propanenitrile]
10 | †† | † | Cc1c(F)ccnc1N1C[C@@H]2C[C@H](C1)N(C(=O)C1CC1)[C@H]2c1cc2c(C)nc3c(F)c(-c4cccc(Cl)c4Cl)c(CCC#N)cc3c2n1[C@H]1[C@H]2CN[C@@H]1C2 (atropisomer, axis not shown; (Ra)) [Example 75, 3-((Ra)-1-((1R,4R,5S)-2-azabicyclo[2.1.1]hexan-5-yl)-2-((1S,5R,7R)-6-(cyclopropanecarbonyl)-3-(4-fluoro-3-methylpyridin-2-yl)-3,6-diazabicyclo[3.2.1]octan-7-yl)-7-(2,3-dichlorophenyl)-6-fluoro-4-methyl-1H-pyrrolo[3,2-c]quinolin-8-yl)propanenitrile]
